“And” between values parts separate entries of the source, which are not always exact repeats. Equal entries are not always repeated. Structures can show the parent of a compound that is named as a salt.
Tests used:
[1] = test system: Clostridium histolyticum collagenase; assay: Bacterial collagenase-based anti-MMP screening assay (SDS-PAGE gel analysis of undegraded Type I collagen); assay type: biochemical
Experimental: Bacterial collagenase-based anti-MMP screening assay: This assay employs purified Clostridium histolyticum collagenase (hereinafter “collagenase”) as the test enzyme for screening anti-MMP activity of compounds of interest. The screening assay involves incubating a constant concentration of collagenase with Type I soluble collagen and quantifying the amount of Type I collagen that remains undegraded in the presence of collagenase in the presence and absence of different test compounds. The basic assay composition comprises 50 μg of Type I collagen (e.g., human placental; Cat. # C7521; Sigma-Aldrich, St. Louis, […]., USA) and 50 μg of collagenase (e.g., Clostridium histolyticum E.C. 3.4.24.3; Cat. No. C7667 (1909 CDU/mg solid); Sigma-Aldrich, St. Louis, […]., USA) in a physiological buffer (pH 7.4) containing zinc ions, with a total reaction volume of 60 μl. […] The buffer composition used comprises […] Tris Base, 200 mM NaCl, 10 mM CaCl2, 0.05 mM ZnCl2, 3 mM NaN3 adjusted to […] with 1 N HCl.
Compounds of interest are added to the reaction system described above to assess their ability to inhibit collagenase degradation of collagen. As test compounds vary with respect to molecular weight and affinity for the dentin matrix, a range of concentrations (wt %) for each compound may be added to the basic reaction. Test compounds may be diluted approximately 1:5 in the final reaction volume by the subsequent sequential addition of solutions containing collagenase, collagen, and buffer.
The enzyme and the collagen are kept on ice. Twenty μL of enzyme (concentration of 5 μg protein/μL×20 μL=100 μg of enzyme) protein was incubated with 5 μL of loading buffer and 20 μL of inhibitor. The reaction was started by adding 20 μL of type I collagen (5 μg/μL×20=100 μg collagen). Thus, the total volume was 65 μL. The total protein was 100 μg enzyme protein plus 100 μg of collagen=200 μg protein in 65 μL. Thirty μL of that mixture was applied to the gel (30/65×200 μg protein=92.3 μg protein. Because the total volume was 65 μL and the inhibitor volume was 20 μL, the inhibitor was diluted 3.25-fold.
Following assembly, reactions are incubated for one hour at 37° C. The incubation reactions were terminated by submerging the tube in boiling water for 3 min. After termination, 30 μL of each reaction assay containing 92 μg of total protein is loaded onto a 7.5% SDS-PAGE polyacrylamide gel (BioRad, Hercules, Calif.) and subjected to electrophoresis at 200 V for 60 min. SDS-PAGE gels are routinely run with samples and various controls in the following order. The nature of the controls is further described below. Controls include collagenase alone (lane 1); collagen alone (lane 2); and collagen mixed with collagenase (lane 3). Assay reactions containing collagen mixed with collagenase plus various concentrations of the test collagenase inhibitor compounds are then loaded on the gel starting with lane 4 (loaded in order of decreasing compound concentration).
Following electrophoresis of the samples, the gel is stained in 0.25% Coomassie Brilliant Blue overnight and destained for 8 hrs in water prior to imaging. After destaining, the gels are digitally scanned to permit quantification of the amount of undegraded collagen present in each reaction, relative to the collagen standard in lane 2.
With regards to the controls, both Type I collagen and collagenase are proteins too large to migrate very far into the SDS-PAGE gel.

human recombinant MMP-9 = target: T1, human recombinant MMP-9 (Homo sapiens, UniProt P14780); assay: Human MMP-9-based anti-MMP screening assay (Sensolyte Generic MMP colorimetric kit); assay type: biochemical; conditions: soluble human MMP-9
T1 construct: purchased AnaSpec, Inc. 72009
T1 sequence (P14780 94-707): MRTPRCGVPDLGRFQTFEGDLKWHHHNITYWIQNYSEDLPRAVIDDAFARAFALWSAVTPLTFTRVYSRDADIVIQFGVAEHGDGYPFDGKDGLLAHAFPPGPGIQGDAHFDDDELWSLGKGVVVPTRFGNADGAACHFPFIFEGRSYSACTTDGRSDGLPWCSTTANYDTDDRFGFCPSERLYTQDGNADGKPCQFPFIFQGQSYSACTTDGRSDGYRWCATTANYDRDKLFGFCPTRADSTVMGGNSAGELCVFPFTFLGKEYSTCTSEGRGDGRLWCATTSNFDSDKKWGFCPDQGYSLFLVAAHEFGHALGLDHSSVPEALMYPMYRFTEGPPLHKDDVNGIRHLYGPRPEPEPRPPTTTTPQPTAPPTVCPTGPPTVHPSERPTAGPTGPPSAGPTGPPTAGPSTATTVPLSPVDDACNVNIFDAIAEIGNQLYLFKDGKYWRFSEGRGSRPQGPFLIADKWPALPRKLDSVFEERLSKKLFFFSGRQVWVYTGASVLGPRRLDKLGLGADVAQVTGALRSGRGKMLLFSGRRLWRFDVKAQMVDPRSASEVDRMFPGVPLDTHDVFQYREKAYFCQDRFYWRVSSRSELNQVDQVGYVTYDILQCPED
Experimental: Human MMP-9-based anti-MMP screening assay: This assay employed purified human recombinant MMP-9 (Cat. No. 72009) and the Sensolyte Generic MMP colorimetric assay kit (Cat. No. 72095) from AnaSpec, Inc. (San Jose, Calif., USA) for screening anti-MMP activity of compounds of interest. This assay involves incubating a constant concentration of human MMP-9 with a proprietary thiopeptide substrate and quantifying the amount of substrate cleaved by the […] in the presence and absence of different test compounds. Cleavage of the proprietary thiopeptide substrate is quantitated by evaluating color production. Reactions may be assembled in a 96-well plate. After incubation for 30 minutes at 37° C., reactions are stopped and absorption measured at 412 nm using a 96-well plate reader synergy HT (BioTek Instruments, Inc., Winooski, Vt., USA).

C=CC[N+](C)(C)CC=C.[Cl-] [DDAC, Diallyldimethylammonium chloride]
COLLAGENASE INHIBITION (%) ([1]; inhibitor 0.5 wt %): 50% | COLLAGENASE INHIBITION (%) ([1]; inhibitor 1 wt %): 56% | COLLAGENASE INHIBITION (%) ([1]; inhibitor 3 wt %): 59% | COLLAGENASE INHIBITION (%) ([1]; inhibitor 6 wt %): 66% | COLLAGENASE INHIBITION (%) ([1]; inhibitor 12 wt %): 73% | % MMP ACTIVITY INHIBITION (t = 30 minutes) (human recombinant MMP-9; inhibitor 10 wt %): 7% | % MMP ACTIVITY INHIBITION (t = 30 minutes) (human recombinant MMP-9; inhibitor 24 wt %): 16%

Cc1c(OCC(O)C[N+](C)(C)C)cc2c(=O)c3ccccc3sc2c1C.[Cl-] (stereo not drawn) [OTX, [3-(3,4-dimethyl-9-oxo-9H-thioxanthen-2-yloxy)-2-hydroxypropyl] trimethyl ammonium chloride]
COLLAGENASE INHIBITION (%) ([1]; inhibitor 0.1 wt %): 57% | COLLAGENASE INHIBITION (%) ([1]; inhibitor 0.2 wt %): 86%

O=C(O)CN(CCN(CC(=O)O)CC(=O)O)CC(=O)O [EDTA, reference compound]
inhibited collagenase ([1]; inhibitor 10 mM (control lane)): 100% and 87%

CC(=O)O.CC(=O)O.NC(=N\CCCCCC/N=C(N)/N=C(\N)Nc1ccc(Cl)cc1)/N=C(\N)Nc1ccc(Cl)cc1 [Chlorhexidine diacetate, chlorhexidine diacetate, reference compound]
COLLAGENASE INHIBITION (%) ([1]; inhibitor 0.02 wt %): 1% | COLLAGENASE INHIBITION (%) ([1]; inhibitor 0.02 wt %, listed as CHX): did not inhibit collagenase | COLLAGENASE INHIBITION (%) ([1]; inhibitor 0.2 wt %): 74% | COLLAGENASE INHIBITION (%) ([1]; inhibitor 0.2 wt %, listed as CHX): 69%

pyridinium tribromide [reference compound]
COLLAGENASE INHIBITION (%) ([1]; inhibitor 1 wt %): no inhibitory activity

C=C(C)C(=O)NCCC[N+](C)(C)C.[Cl-] [MAPTAC, [3-(Methacryloylamino)propyl]trimethylammonium chloride]
COLLAGENASE INHIBITION (%) ([1]; inhibitor 0.1 wt %): 41% | COLLAGENASE INHIBITION (%) ([1]; inhibitor 0.5 wt %): 39% | COLLAGENASE INHIBITION (%) ([1]; inhibitor 1 wt %): 53% | COLLAGENASE INHIBITION (%) ([1]; inhibitor 5 wt %): 53% | COLLAGENASE INHIBITION (%) ([1]; inhibitor 10 wt %): 55% | % MMP ACTIVITY INHIBITION (t = 30 minutes) (human recombinant MMP-9; inhibitor 10 wt %): 6% | % MMP ACTIVITY INHIBITION (t = 30 minutes) (human recombinant MMP-9; inhibitor 24 wt %): 17%

C=C(C)C(=O)OCC[N+](C)(C)C [MCMS, 2-[(Methacryloyloxy)ethyl]trimethylammonium methyl sulfate]
COLLAGENASE INHIBITION (%) ([1]; inhibitor 0.5 wt %): 73% | COLLAGENASE INHIBITION (%) ([1]; inhibitor 1 wt %): 70% | COLLAGENASE INHIBITION (%) ([1]; inhibitor 4 wt %): 65% | COLLAGENASE INHIBITION (%) ([1]; inhibitor 8 wt %): 62% | COLLAGENASE INHIBITION (%) ([1]; inhibitor 16 wt %): 87% | % MMP ACTIVITY INHIBITION (t = 30 minutes) (human recombinant MMP-9; inhibitor 10 wt %): 55% | % MMP ACTIVITY INHIBITION (t = 30 minutes) (human recombinant MMP-9; inhibitor 24 wt %): 84%

C=C(C)C(=O)OCC[N+](C)(C)C.[Cl-] [METMAC, [2-(Methacryloyloxy)ethyl]trimethylammonium chloride]
COLLAGENASE INHIBITION (%) ([1]; inhibitor 1.3 wt %): 39% | COLLAGENASE INHIBITION (%) ([1]; inhibitor 6.4 wt %): 56% | inhibited collagenase ([1]; inhibitor 12.85%): 69% | COLLAGENASE INHIBITION (%) ([1]; inhibitor 12.9 wt %): 69% | COLLAGENASE INHIBITION (%) ([1]; inhibitor 25.7 wt %): 100% | % MMP ACTIVITY INHIBITION (t = 30 minutes) (human recombinant MMP-9; inhibitor 10 wt %): 42% | % MMP ACTIVITY INHIBITION (t = 30 minutes) (human recombinant MMP-9; inhibitor 24 wt %): 71%

CCCCCCCCCCCCCCCC[N+](C)(C)C.[Br-] [hexadecyl trimethyl ammonium bromide, reference compound]
inhibitory activity against collagenase ([1]; inhibitor 0.15% in ethanol): no inhibitory activity

benzalkonium chloride [reference compound]
COLLAGENASE INHIBITION (%) ([1]; inhibitor 10 wt %): no inhibitory activity

C=CC(=O)OCC[N+](C)(C)C.[Cl-] [ATA, 2-Acryloxyethyltrimethylammonium chloride]
COLLAGENASE INHIBITION (%) ([1]; inhibitor 0.5 wt %): 57% | COLLAGENASE INHIBITION (%) ([1]; inhibitor 1 wt %): 55% | COLLAGENASE INHIBITION (%) ([1]; inhibitor 4 wt %): 44% | COLLAGENASE INHIBITION (%) ([1]; inhibitor 8 wt %): 49% | COLLAGENASE INHIBITION (%) ([1]; inhibitor 16 wt %): 73% | % MMP ACTIVITY INHIBITION (t = 30 minutes) (human recombinant MMP-9; inhibitor 10 wt %): 79% | % MMP ACTIVITY INHIBITION (t = 30 minutes) (human recombinant MMP-9; inhibitor 24 wt %): 82%

— US20110256510A1, “Use of Quaternary Ammonium Compounds to Inhibit Endogenous MMPs in Tooth Dentin” (priority 2009, published 2011)
